Source: patent publication US20050239874A1, “Novel analgesic and immunomodulatory cannabinoids” (University of Connecticut, priority 1998, published 2005)
Read-outs that look alike come from different tables or passages of the source.

What was measured:
CB1 receptor = target: T1, CB1 receptor (Rattus norvegicus, UniProt P20272); test: Radioligand binding assay ([3H]CP-55,940 displacement), rat forebrain membranes as source of CB1
T1 construct: using rat forebrain membranes as a source of CB1; from tissue; host or cells: rat forebrain (whole brain minus cerebral cortex) membranes
T1 sequence (P20272 whole entry): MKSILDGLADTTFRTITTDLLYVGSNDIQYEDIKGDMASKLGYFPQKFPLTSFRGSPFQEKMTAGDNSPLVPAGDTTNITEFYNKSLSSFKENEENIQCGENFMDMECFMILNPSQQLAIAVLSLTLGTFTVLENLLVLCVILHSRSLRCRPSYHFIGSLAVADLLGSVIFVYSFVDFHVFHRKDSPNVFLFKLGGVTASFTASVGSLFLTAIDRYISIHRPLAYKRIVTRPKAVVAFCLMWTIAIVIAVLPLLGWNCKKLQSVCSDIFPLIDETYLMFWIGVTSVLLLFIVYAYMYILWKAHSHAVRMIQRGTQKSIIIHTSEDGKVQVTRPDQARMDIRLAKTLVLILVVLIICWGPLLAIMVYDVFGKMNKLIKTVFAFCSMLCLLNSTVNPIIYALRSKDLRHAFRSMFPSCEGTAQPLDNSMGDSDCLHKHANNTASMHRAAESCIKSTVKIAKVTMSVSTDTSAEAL
Protocol: The binding affinities of the novel compounds described in this invention for the central cannabinoid receptor was assessed using rat forebrain membranes as a source of CB1. Membranes were prepared as described by the method of Dodd et al., Brain Res. 226:107 (1981), the entire teachings of which are incorporated herein by reference. Rat whole brains minus the cerebral cortex were diced with a razor blade and homogenized in 0.32 M sucrose, pH 7.4. The resulting suspension was spun at 400×g at 4° C. The supernatant was decanted and layered over 1.2 M sucrose in TME buffer (25 mM Tris base, 5 mM MgCl2 1 mMEDTA, pH 7.4) and spun at 109,000×g. The interface containing plasma membrane protein was collected, pooled and layered over 0.8 M sucrose in TME, pH 7.4. The pellet was carefully resuspended in TME, pH 7.4 and the total protein content was assayed by the method of Markwell et al., Anal. Biochem. 87:206 (1978), the entire teachings of which are incorporated herein by reference. Protein was aliquotted, frozen under liquid nitrogen and stored at −80° C. until use.
(§1) Approximately 30 μg of tissue was incubated in silanized 96 well microtiter plate with TME containing 0.1% essentially fatty acid free bovine serum albumin (BSA), 0.8 nM CH^3]CP-55,940 and various concentrations of the test compound in a final volume of 200 μL. Assays were incubated at 30° C. for 1 hour. The samples were filtered using Packard Filtermate 196 and Whatman GF/C Filterplates and washed with wash buffer (TME) containing 0.5% BSA. Radioactivity was detected using MicroScint 20 scintillation cocktail added directly to the dried filterplates, and the filterplates were counted using a Packard Instruments Top-Count. Nonspecific binding was assessed using 100 nM CP-55,940. Data collected from three independent experiments performed with duplicate determinations were normalized between 100% and 0% specific binding for [H^3]CP-55,940, determined using buffer and 100 nM CP-55,940. The normalized data was analyzed using a 4 parameter nonlinear logistic equation to yield IC50 values. Data from at least two independent experiments performed in duplicate were used to calculate IC50 values which were convered to Ki values using the assumptions of Cheng and Prusoff, Biochem. Pharmacol., 22:3099 (1973), the entire teachings of which are incorporated herein by reference.

CB2 receptor = target: T2, CB2 receptor (Mus musculus, UniProt P47936); test: Radioligand binding assay ([3H]CP-55,940 displacement), mouse spleen as source of CB2; conditions: for selectivity for the CB2 receptor: CB2 over CB1, statement in words
T2 construct: Mouse spleen was used a source of CB2 receptors; from tissue; host or cells: mouse spleen
T2 sequence (P47936 whole entry): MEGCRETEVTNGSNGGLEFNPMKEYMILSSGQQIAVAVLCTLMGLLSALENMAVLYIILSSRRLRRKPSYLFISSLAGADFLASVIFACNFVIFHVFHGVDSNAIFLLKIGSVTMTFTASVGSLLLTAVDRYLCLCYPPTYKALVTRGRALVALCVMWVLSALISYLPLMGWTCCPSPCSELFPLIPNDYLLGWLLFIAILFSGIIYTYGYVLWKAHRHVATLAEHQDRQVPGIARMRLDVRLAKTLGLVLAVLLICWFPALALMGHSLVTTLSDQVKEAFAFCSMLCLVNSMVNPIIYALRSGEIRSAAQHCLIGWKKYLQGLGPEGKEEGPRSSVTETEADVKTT
Protocol: as §1
Mouse spleen was used a source of CB2 receptors to assess binding affinity of analogs described in this invention. The CB2 binding assay was conducted in the same manner as for CB1. Silanized centrifuge tubes were used throughout to minimize receptor loss due to adsorption.

[1] = rat forebrain membranes, 0.8 nM [3H]CP-55,940, Ki from IC50 by Cheng and Prusoff, read-out: Ki in nM for the CB1 Receptor
[2] = Ki in nM for the CB1 Receptor, rat forebrain membranes, 0.8 nM [3H]CP-55,940, Ki from IC50 by Cheng and Prusoff
[3] = Ki for the CB2 receptor, refers to Example 2
[4] = Ki in nM for the CB2 Receptor, mouse spleen, [3H]CP-55,940, Ki from IC50 by Cheng and Prusoff
[5] = Ki for the CB1 receptor, refers to Example 2

| Compound | Ki (CB1 receptor; [1]) [nM] | Ki (CB1 receptor; [2]) [nM] | selectivity for the CB2 receptor (CB2 receptor) | Ki (CB2 receptor; [3]) [nM] | Ki (CB2 receptor; [4]) [nM] | Ki (CB1 receptor; [5]) [nM] | also measured |
| --- | --- | --- | --- | --- | --- | --- | --- |
| CC1=CC[C@@H]2[C@@H](C1)c1c(O)cc(C34CC5CC(CC(C5)C3)C4)cc1OC2(C)C [AM411] | 6.9 |  |  |  |  |  | selectivity for the CB1 receptor (CB1 receptor; CB1 over CB2, statement in words): selective agonists; Ki (CB2 receptor; mouse spleen, [3H]CP-55,940, Ki from IC50 by Cheng and Prusoff, read-out: Ki in nM for the CB2 Receptor): 52 nM |
| CC1=CC[C@@H]2[C@@H](C1)c1c(O)cc(C3CC4CCC3(C)C4(C)C)cc1OC2(C)C (stereo partly shown) [AM731] |  | 60.6 | selective agonists | < 10 | 6.1 |  |  |
| CC1=CC[C@@H]2[C@@H](C1)c1c(O)cc(C3CC4CCC3(C)C4(C)C)cc1OC2(C)C (stereo partly shown) [AM732] |  | 20.1 | selective agonists |  | 2 |  |  |
| CCCCCCC1(c2cc(O)c3c(c2)OC(C)(C)[C@@H]2CC=C(C)C[C@@H]32)SCCS1 [AMG3] | 0.32 |  |  |  | 1.7 | < 1 |  |
| CCCCCCC1(c2cc(O)c3c(c2)OC(C)(C)[C@@H]2CC=C(C)C[C@@H]32)OCCO1 [AMG14] |  | 0.2 |  |  |  | < 1 |  |
| CCCCCc1cc(O)c2c(c1)OC(C)(C)[C@@H]1CC=C(C)C[C@@H]21 [Δ^8-tetrahydrocannabinol, reference compound] |  |  |  | 14 |  |  |  |
